Source: patent US6004938A, “Inositolglycans having insulin-like action” (Hoescht Aktiengesellschaft, priority 1996, dated 1999)
pEC50: −log10 of the molar value.

What was measured:
rat fat cells [1] = assay: Lipogenesis in isolated rat fat cells (insulin-like activity); format: cell-based, rat (Wistar); conditions: 1.5 h; for pEC50: read-out: Lipogenesis EC50; for Emax: read-out: Lipogenesis % Insmax
Description: (§1) This example provides exemplary methods for determining insulin-like activity. The biological activity of the compounds of the formula I according to the invention is determined with the aid of isolated fat cells from the rat.
(§2) The preparation of fat cells from the rat was carried out as follows: White fatty tissue of the epididymis (Wistar rat, 160-180 g, no food restriction) is digested with collagenase and the resulting isolated fat cells are separated off by means of filtration of undigested tissue and washed by flotation several times using Krebs-Ringer-Henseleit buffer (KRH buffer).
This test determines the insulin-stimulable conversion of glucose into toluene-soluble products (triglycerides, phospholipids, fatty acids), which promotes glucose transport and triglyceride (glycerol-3-P synthesis, esterification)/phospholipid/fatty acid synthesis including the insulin signal transmission cascade. At a glucose concentration of 2.5 mM in the test, the esterification (and not the glycerol-3-P synthesis including glucose transport) is rate-determining for the stimulation of lipogenesis.
200 μl (3×10^5 cells/ml) of rat fat cells in KRH buffer are incubated at 37° C. for 90 min with 100 μl of D-[3-^3 H] glucose (25 mM, 0.4 μCi) in the presence or absence of insulin (10 ng/ml) or compound of the formula I according to the invention (final volume 1 ml). By addition of a toluene-soluble scintillation cocktail (10 ml), the cells are disrupted and the lipids are separated off from water-soluble products and the incubation medium. After phase separation, the radioactivity incorporated in lipid products is determined directly without removal of the aqueous phase by scintillation measurement ([^3 H]lipid [dpm×10^-3 ]). A control value (incubation under identical conditions but without cells) is subtracted from this radioactivity. The lipogenesis rate is linear up to 120 min. The maximum stimulation factor--this is the ratio of the incubation result with insulin to the incubation results without insulin--is set at 100%. The percentage data under "%Insmax " are parts of the maximum stimulation factor defined in this way. The term EC50 indicates the concentration of the compound of the formula I at which 50% of the maximum stimulation to be achieved by the respective compound of the formula I is to be observed.

rat fat cells [2] = assay: Glucose transport in isolated rat fat cells (insulin-like activity); format: cell-based, rat (Wistar); conditions: for Emax: 0.25 h, read-out: Glucose transport % Insmax; for pEC50: read-out: Glucose transport EC50
Description: as §1, §2
[…] After addition of 15 μl of 2-[^3 H]-deoxyglucose (0.3 mM, 0.2 μCi), the incubation is continued at room temperature. After specified times (0-20 min), 100 μl of the test batch are removed and transferred to a reaction vessel (contents 400 μl), in which 250 μl of dinonyl phthalate have been initially introduced. After centrifugation (15,000×g, 1 min), the cells are separated off from the oily layer of the incubation medium underneath the oily layer by cutting the tube at the level of the oily layer and transferring to a scintillation vessel. After addition of 5 ml of water-soluble scintillation fluid, the radioactivity is determined. This total cell-associated radioactivity is corrected for [^3 H]-deoxyglucose which has passively diffused into the cells and is included in the cell interstices by subtraction of a control value (incubation in the presence of the glucose transport inhibitor cytochalasin B). The initial (stimulated) glucose transport rate is linear up to 15 min. The maximum stimulation factor--this is the ratio of the incubation result with insulin to the incubation result without insulin--is set at 100%.
The terms "%Insmax " and "EC50 " are as defined under A) lipogenesis.

[3] = concentration at 50% of the maximum stimulation achieved by the respective compound, rat fat cells, 90 min, 37° C.
[4] = part of maximum stimulation factor of insulin (set at 100%), rat fat cells, 90 min, 37° C., D-[3-3H]glucose
[5] = part of maximum stimulation factor of insulin (set at 100%), rat fat cells, 15 min, 37° C., 2-[3H]-deoxyglucose
[6] = concentration at 50% of the maximum stimulation achieved by the respective compound, rat fat cells, 2-[3H]-deoxyglucose

Structure (SMILES) | pEC50 (rat fat cells [1]; [3]) | Emax (rat fat cells [1]; [4]) [%] | Emax (rat fat cells [2]; [5]) [%] | pEC50 (rat fat cells [2]; [6]) | Emax (rat fat cells [1]; Rattus norvegicus) [%] | pEC50 (rat fat cells [1]; Rattus norvegicus) | Emax (rat fat cells [2]; Rattus norvegicus) [%] | pEC50 (rat fat cells [2]; Rattus norvegicus)
N[C@H]1[C@H](O[C@H]2[C@H](O)[C@@H](O)[C@H](O)[C@@H]3OP(=O)(O)O[C@H]23)O[C@H](CO)[C@@H](O[C@H]2O[C@H](CO[C@H]3O[C@H](CO)[C@@H](O)[C@H](O)[C@@H]3O[C@H]3O[C@H](CO[PH](=O)O)[C@@H](O)[C@H](O)[C@@H]3O[C@H]3O[C@H](CO)[C@@H](O)[C@H](O)[C@@H]3O)[C@@H](O)[C@H](O)[C@@H]2O)[C@@H]1O [A, HO-PO(H)O-6Manα1(Manα1-2)-2Manα1-6Manα1-4GluNβ1-6(L)inositol-1,2-(cyclic)-phosphate] | 5.15 | 59 | 28 | 5.10 |  |  |  | 
N[C@H]1[C@H](O[C@@H]2[C@@H](O)[C@H](O)[C@@H](O)[C@H]3OP(=O)(O)O[C@H]32)O[C@H](CO)[C@@H](O[C@H]2O[C@H](CO[C@H]3O[C@H](CO)[C@@H](O)[C@H](O)[C@@H]3O[C@H]3O[C@H](CO[PH](=O)O)[C@@H](O)[C@H](O)[C@@H]3O[C@H]3O[C@H](CO)[C@@H](O)[C@H](O)[C@@H]3O)[C@@H](O)[C@H](O)[C@@H]2O)[C@@H]1O [B, HO-PO(H)O-6Manα1(Manα1-2)-2Manα1-6Manα1-4GluNβ1-6(D)inositol-1,2-(cyclic)-phosphate] | 5.09 | 77 | 41 | 5.09 |  |  |  | 
N[C@H]1[C@H](O[C@@H]2[C@@H](O)[C@H](O)[C@@H](O)[C@H]3OP(O)(=S)O[C@H]32)O[C@H](CO)[C@@H](O[C@H]2O[C@H](CO[C@H]3O[C@H](CO)[C@@H](O)[C@H](O)[C@@H]3O[C@H]3O[C@H](CO[PH](=O)O)[C@@H](O)[C@H](O)[C@@H]3O[C@H]3O[C@H](CO)[C@@H](O)[C@H](O)[C@@H]3O)[C@@H](O)[C@H](O)[C@@H]2O)[C@@H]1O (stereo partly drawn) [C, HO-PO(H)O-6Manα1(Manα1-2)-2Manα1-6Manα1-4GluNβ1-6(D)inositol-1,2-(cyclic)-thiophosphate] |  |  |  |  | 64 | 5.15 | 29 | 5.00
N[C@H]1[C@H](O[C@H]2[C@H](O)[C@@H](O)[C@H](OP(=O)(O)O)[C@H](O)[C@@H]2O)O[C@H](CO)[C@@H](O)[C@@H]1O[C@H]1O[C@H](CO[C@H]2O[C@H](CO)[C@@H](O)[C@H](O)[C@@H]2O[C@H]2O[C@H](CO[PH](=O)O)[C@@H](O)[C@H](O)[C@@H]2O[C@H]2O[C@H](CO)[C@@H](O)[C@H](O)[C@@H]2O)[C@@H](O)[C@H](O)[C@@H]1O [D, HO-PO(H)O-6Manα1(Manα1-2)-2Manα1-6Manα1-3GluNβ1-6(L)inositol-3-phosphate] | 4.70 | 33 | 18 | 4.74 |  |  |  | 
NCCOP(=O)(O)OC[C@H]1O[C@H](OC[C@H]2O[C@H](O[C@H]3[C@H](O)[C@@H](N)[C@H](O[C@@H]4[C@@H](O)[C@H](O)[C@@H](O)[C@H]5OP(=O)(O)O[C@H]54)O[C@@H]3CO)[C@@H](OP(=O)(O)OCCN)[C@@H](O)[C@@H]2O)[C@@H](O[C@H]2O[C@H](CO[PH](=O)O)[C@@H](O)[C@H](O)[C@@H]2O[C@H]2O[C@H](CO)[C@@H](O)[C@H](O)[C@@H]2O)[C@@H](O)[C@@H]1O [E, HO-PO(H)O-6Manα1(Manα1-2)-2Manα1(6-EtNP)-6Manα1(2-EtNP)-4GluNβ1-6(D)inositol-1,2-(cyclic)-phosphate] | 4.22 | 48 | 34 | 4.52 |  |  |  | 
N[C@H]1[C@@H](O[C@H]2[C@H](O)[C@@H](O)[C@H](O)[C@@H]3OP(=O)(O)O[C@H]23)O[C@H](CO)[C@@H](O[C@H]2O[C@H](CO[PH](=O)O)[C@@H](O)[C@H](O)[C@@H]2O)[C@@H]1O [G, HO-PO(H)O-6Manα1-4GluNα1-6(L)inositol-1,2-(cyclic)-phosphate] | 4.82 | 25 | 9 | 4.82 |  |  |  | 
N[C@H]1[C@@H](O[C@H]2[C@H](O)[C@@H](O)[C@H](O)[C@H](O)[C@@H]2O)O[C@H](CO)[C@@H](O[C@H]2O[C@H](CO[PH](=O)O)[C@@H](O)[C@H](O)[C@@H]2O)[C@@H]1O [H, HO-PO(H)O-6Manα1-4GluNα1-6(L)inositol] | 4.60 | 15 | 2 | 5.00 |  |  |  | 
N[C@H]1[C@H](O[C@@H]2[C@@H](O)[C@H](O)[C@@H](O)[C@H]3OP(=O)(O)O[C@H]32)O[C@H](CO)[C@@H](O[C@H]2O[C@H](CO[C@H]3O[C@H](CO[PH](=O)O)[C@@H](O)[C@H](O)[C@@H]3O[C@H]3O[C@H](CO[PH](=O)O)[C@@H](O)[C@H](O)[C@@H]3O[C@H]3O[C@H](CO)[C@@H](O)[C@H](O)[C@@H]3O)[C@@H](O)[C@H](O)[C@@H]2O)[C@@H]1O [M, HO-PO(H)O-6Manα1(Manα1-2)-2Manα1(6-PO(H)OH)-6Manα1-4GluNβ1-6(D)-inositol-1,2-(cyclic)-phosphate] | 5.15 | 90 | 39 | 5.22 |  |  |  | 
N[C@H]1[C@H](O[C@@H]2[C@@H](O)[C@H](O)[C@@H](O)[C@H]3OP(=O)(O)O[C@H]32)O[C@H](CO)[C@@H](O[C@H]2O[C@H](CO[C@H]3O[C@H](COS(=O)(=O)O)[C@@H](O)[C@H](O)[C@@H]3O[C@H]3O[C@H](COS(=O)(=O)O)[C@@H](O)[C@H](O)[C@@H]3O[C@H]3O[C@H](CO)[C@@H](O)[C@H](O)[C@@H]3O)[C@@H](O)[C@H](O)[C@@H]2O)[C@@H]1O [N, HO-SO2 -O-6Manα1(Manα1-2)-2Manα1(6-HSO3)-6Manα1-4-GluNβ1-6(D)-inositol-1,2-(cyclic)-phosphate] | 5.52 | 96 | 52 | 5.30 |  |  |  | 
O=[PH](O)OC[C@H]1O[C@H](OC[C@H]2O[C@H](OC[C@H]3O[C@H](OC[C@H]4O[C@H](OC[C@H]5O[C@H](O[C@H]6[C@H](O)[C@@H](O)[C@H](OP(=O)(O)O)[C@H](O)[C@@H]6O)[C@@H](O)[C@@H](O)[C@@H]5O)[C@@H](O)[C@@H](O)[C@@H]4O)[C@@H](O)[C@@H](O)[C@@H]3O)[C@@H](O)[C@@H](O)[C@@H]2O)[C@@H](O)[C@@H](O)[C@@H]1O [O, HO-PO(H)O-6-Manα1-6Manα1-6Manα-1-6Manα1-6Manα1-6(L)inositol-3-phosphate] | 4.70 | 10 | 5 | 4.30 |  |  |  | 
N[C@H]1[C@H](O[C@H]2[C@H](O)[C@@H](O)[C@H](OP(=O)(O)O)[C@H](O)[C@@H]2O)O[C@H](CO)[C@@H](O)[C@@H]1O[C@H]1O[C@H](CO[C@H]2O[C@H](CO[PH](=O)O)[C@@H](O)[C@H](O)[C@@H]2O[C@H]2O[C@H](CO[PH](=O)O)[C@@H](O)[C@H](O)[C@@H]2O)[C@@H](O)[C@H](O)[C@@H]1O [Q, HO-PO(H)O-6Manα1-2Manα1(6-PO(H)OH)-6-Manα1-3GluNβ1-6(L)inositol-3-phosphate] | 4.40 | 44 | 18 | 4.52 |  |  |  | 
NC(=O)OC[C@H]1O[C@H](O[C@@H]2[C@@H](OC[C@H]3O[C@H](O[C@@H]4[C@@H](N)[C@H](O[C@H]5[C@H](O)[C@@H](O)[C@H](OP(=O)(O)O)[C@H](O)[C@@H]5O)O[C@H](CO)[C@H]4O)[C@@H](O)[C@@H](O)[C@@H]3O)O[C@H](COC(N)=O)[C@@H](O)[C@@H]2O)[C@@H](O[C@H]2O[C@H](CO)[C@@H](O)[C@H](O)[C@@H]2O)[C@@H](O)[C@@H]1O [R, H2 N-CO-O-6Manα1(Manα1-2)-2Manα1(6-CO-NH2)-6Manα1-3GluNβ1-6(L)inositol-3-phosphate] | 4.82 | 48 | 19 | 5.00 |  |  |  | 
